This note sets out measurements from US20060161001A1, “Substituted heterocyclic compounds and methods of use” (Amgen Inc., priority 2004, published 2006).

The assay relates to LPS induced TNF release. Nature of the assay: THP1 cell assay (LPS induced TNF release). It is filed as cell-based. To be noted: Homo sapiens, THP-1; THP1 cells, LPS induced TNF-α secretion, 3 h at 37° C. The method, then: Lipopolysaccharide-Activated THP1 Cell TNF Production Assay
THP1 cells are resuspended in fresh THP1 media (RPMI 1640, 10% heat-inactivated FBS, 1XPGS, 1XNEAA, plus 30 μM OME) at a concentration of 1E6/mL. One hundred microliters of cells per well are plated in a polystyrene 96-well tissue culture. One microgram per mL of bacterial LPS is prepared in THP1 media and is transferred to the wells. Test compounds are dissolved in 100% DMSO and are serially diluted 3-fold in a polypropylene 96-well microtiter plate (drug plate). HI control and LO control wells contain only DMSO. One microliter of test compound from the drug plate followed by 10 μL of LPS are transferred to the cell plate. The treated cells are induced to synthesize and secrete TNF-α at 37° C. for 3 h. Forty microliters of conditioned media are transferred to a 96-well polypropylene plate containing 110 μL of ECL buffer (50 mM Tris-HCl pH 8.0, 100 mM NaCl, 0.05% Tween 20, 0.05% NaN3 and 1% FBS) supplemented with 0.44 nM MAB610 monoclonal Ab (R&D Systems), 0.34 nM ruthenylated AF210NA polyclonal Ab (R&D Systems) and 44 μg/mL sheep anti-mouse M280 Dynabeads (Dynal). After a 2 h incubation at RT with shaking, the reaction is read on the ECL M8 Instrument (IGEN Inc.). A low voltage is applied to the ruthenylated TNF-α immune complexes, which in the presence of TPA (the active component in Origlo), results in a cyclical redox reaction generating light at […]. The amount of secreted TNF-α in the presence of compound compared with that in the presence of DMSO vehicle alone (HI control) is calculated using the formula: % control (POC)=(cpd−average LO)/(average HI−average LO)*100. Data (consisting of POC and inhibitor concentration in μM) is fitted to a 4-parameter equation (y=A+((B−A)/(I+((x/C)ˆD))), where A is the minimum y (POC) value, B is the maximum y (POC), C is the x (cpd concentration) at the point of inflection and D is the slope factor) using a Levenburg-Marquardt non-linear regression algorithm.

SMILES strings stand for the structures. pIC50: −log10 of the molar value. Bounds are passed on as bounds.

`CC(O)c1cc2c(nc1-c1ccccc1)N(c1ccnc(NCCc3ccccc3)n1)CCC2` (stereo not drawn) [Example 73, 1-(8-(2-(Phenethylamino)pyrimidin-4-yl)-2-phenyl-5,6,7,8-tetrahydro-1,8-naphthyridin-3-yl)ethanol] showed a negative-log IC50 (pIC50) of no less than 4.70.
To `CCOC(=O)c1cc2c(nc1-c1ccccc1)N(c1ccnc(NC3CCN(C(=O)OC(C)(C)C)CC3)n1)CCC2` [Example 74, Ethyl 8-(2-(1-(tert-butoxycarbonyl)piperidin-4-ylamino)pyrimidin-4-yl)-2-phenyl-5,6,7,8-tetrahydro-1,8-naphthyridine-3-carboxylate] belongs no less than 4.70.
`CCOC(=O)c1cc2c(nc1-c1ccccc1)N(c1ccnc(N[C@H]3CC[C@H](N)CC3)n1)CCC2` [Example 75, Ethyl 8-(2-((1R,4R)-4-aminocyclohexylamino)pyrimidin-4-yl)-2-phenyl-5,6,7,8-tetrahydro-1,8-naphthyridine-3-carboxylate] had a pIC50 of no less than 4.70.
To `N[C@H]1CC[C@H](Nc2nccc(N3CCCc4cc(CO)c(-c5ccccc5)nc43)n2)CC1` [Example 76, (8-(2-((1R,4R)-4-Aminocyclohexylamino)pyrimidin-4-yl)-2-phenyl-5,6,7,8-tetrahydro-1,8-naphthyridin-3-yl)methanol] belongs no less than 4.70.
Under `CC(C)(O)c1cc2c(nc1-c1ccccc1)N(c1ccnc(N[C@H]3CC[C@H](N)CC3)n1)CCC2` [Example 78, 2-(8-(2-((1R,4R)-4-Aminocyclohexylamino)pyrimidin-4-yl)-2-phenyl-5,6,7,8-tetrahydro-1,8-naphthyridin-3-yl)propan-2-ol] stands no less than 4.70.
In the case of `CCOC(=O)c1cc2c(nc1-c1ccccc1)N(c1ccnc(NC(C)Cc3cccc(CO)c3)n1)CCC2` (stereo not drawn) [Example 79, Ethyl 8-(2-(1-(3-(hydroxymethyl)phenyl)propan-2-ylamino)pyrimidin-4-yl)-2-phenyl-5,6,7,8-tetrahydro-1,8-naphthyridine-3-carboxylate], the pIC50 is no less than 4.70.
Turning to `CC(Cc1cccc(CN)c1)Nc1nccc(N2CCCc3cc(CO)c(-c4ccccc4)nc32)n1` (stereo not drawn) [Example 80, (8-(2-(1-(3-(Aminomethyl)phenyl)propan-2-ylamino)pyrimidin-4-yl)-2-phenyl-5,6,7,8-tetrahydro-1,8-naphthyridin-3-yl)methanol], the negative logarithm of the IC50 (pIC50) was no less than 4.70.
`Nc1cc2c(nc1-c1ccccc1)N(c1ccnc(NCCc3ccccc3)n1)CCC2` [Example 81, 8-(2-(Phenethylamino)pyrimidin-4-yl)-2-phenyl-5,6,7,8-tetrahydro-1,8-naphthyridin-3-amine] showed a pIC50 of no less than 4.70.
Under `OCc1cc(-c2ccccc2)nc2c1CCCN2c1ccnc(NCCc2ccccc2)n1` [Example 86, (8-(2-(Phenethylamino)pyrimidin-4-yl)-2-phenyl-5,6,7,8-tetrahydro-1,8-naphthyridin-4-yl)methanol] stands no less than 4.70.
In the case of `CCOC(=O)N1CCC(Nc2nccc(N3CCCc4ccc(-c5ccccc5)nc43)n2)CC1` [Example 87, Ethyl-4-(4-(7-phenyl-3,4-dihydro-1,8-naphthyridin-1(2H)-yl)pyrimidin-2-ylamino)-piperidine-1-carboxylate], the pIC50 is no less than 4.70.
`NC1CCC(Nc2nccc(N3CCCc4ccc(-c5ccccc5)nc43)n2)CC1` [Example 88, (1R,4R)-N^1-(4-(7-Phenyl-3,4-dihydro-1,8-naphthyridin-1(2H)-ylpyrimidin-2-yl)-cyclohexane-1,4-diamine]: the pIC50 is no less than 4.70.
Under `CC(C)NC1CCC(Nc2nccc(N3CCCc4ccc(-c5ccccc5)nc43)n2)CC1` [Example 89, (1R,4R)-N^1-Isopropyl-N^4-(4-(7-phenyl-3,4-dihydro-1,8-naphthyridin-1(2H)-yl)pyrimidin-2-yl)cyclohexane-1,4-diamine] stands no less than 4.70; under `CC(=O)NC1CCC(Nc2nccc(N3CCCc4ccc(-c5ccccc5)nc43)n2)CC1` [Example 90, N-((1R,4R)-4-(4-(7-Phenyl-3,4-dihydro-1,8-naphthyridin-1(2H)-yl)pyrimidin-2-ylamino)cyclohexyl)acetamide], no less than 4.70; under `C[C@@H](Cc1cccc([C@@H](C)N)c1)Nc1nccc(N2CCCc3ccc(-c4ccccc4)nc32)n1` [Example 91, N-((S)-1-(3-((R)-1-Aminoethyl)phenyl)propan-2-yl)-4-(7-phenyl-3,4-dihydro-1,8-naphthyridin-1(2H)-yl) pyrimidin-2-amine], no less than 4.70.
Under `C[C@@H](Cc1cccc([C@@H](C)NC(=O)OC(C)(C)C)c1)Nc1nccc(N2CCOc3cnc(-c4ccccc4)nc32)n1` [Example 99, tert-Butyl (R)-1-(3-((S)-2-(4-(2-phenyl-6,7-dihydropyrimido[5,4-b][1,4]oxazin-8-yl)pyrimidin-2-ylamino)propyl)phenyl)ethylcarbamate] stands no less than 4.70; under `C[C@@H](Cc1cccc([C@@H](C)N)c1)Nc1nccc(N2CCOc3cnc(-c4ccccc4)nc32)n1` [Example 100, N-((S)-1-(3-((R)-1-Aminoethyl)phenyl)propan-2-yl)-4-(2-phenyl-6,7-dihydropyrimido[5,4-b][1,4]oxazin-8-yl)pyrimidin-2-amine], no less than 4.70.
To `N[C@H]1CC[C@H](Nc2nccc(N3CCOc4cnc(-c5ccccc5)nc43)n2)CC1` [Example 102, (1R,4R)-N^1-(4-(2-Phenyl-6,7-dihydropyrimido[5,4-b][1,4]oxazin-8-yl)pyrimidin-2-yl)cyclohexane-1,4-diamine] belongs no less than 4.70; to `c1ccc(-c2ncc3c(n2)N(c2ccnc(NC4CCNCC4)n2)CCO3)cc1` [Example 106, 4-(2-Phenyl-6,7-dihydropyrimido[5,4-b][1,4]oxazin-8-yl)-N-(piperidin-4-yl)-pyrimidin-2-amine], no less than 4.70.
In turn, `CC(=O)N1CCC(Nc2nccc(N3CCOc4cnc(-c5ccccc5)nc43)n2)CC1` [Example 107, 1-(4-(4-(2-Phenyl-6,7-dihydropyrimido[5,4-b][1,4]oxazin-8-yl)pyrimidin-2-yl-amino)piperidin-1-yl)ethanone] gave a pIC50 of no less than 4.70.
To `C[C@@H](Cc1cccc(C(C)(C)N)c1)Nc1nccc(N2CCOc3cnc(-c4ccccc4)nc32)n1` [Example 108, (S)-N-(1-(3-(2-Aminopropan-2-yl)phenyl)propan-2-yl)-4-(2-phenyl-6,7-dihydropyrimido[5,4-b][1,4]oxazin-8-yl)pyrimidin-2-amine] belongs no less than 4.70.
To `C[C@H](N)c1cccc(C[C@H](C)Nc2nccc(N3CCCc4cnc(-c5ccccc5)cc43)n2)c1` [Example 109, N-((S)-1-(3-((S)-1-Aminoethyl)phenyl)propan-2-yl)-4-(7-phenyl-3,4-dihydro-1,6-naphthyridin-1(2H)-yl)pyrimidin-2-amine] belongs no less than 4.70.
